Like-named read-outs stand apart in the source and are kept apart here.
Assays:
vitamin D-deficient rats [1] = experiment: Intestinal calcium transport, everted gut sac method; format: in vivo, rat; settings: for intestinal calcium transport: everted gut sac
Protocol: (§1) Male, weanling Sprague-Dawley rats were placed on Diet 11 (0.47% Ca) diet +AEK oil for one week followed by Diet 11 (0.02% Ca) +AEK oil for 3 weeks. The rats were then switched to a diet containing 0.47% Ca for one week followed by two weeks on a diet containing 0.02% Ca. Dose administration began during the last week on 0.02% calcium diet. Four consecutive ip doses were given approximately 24 hours apart. Twenty-four hours after the last dose, blood was collected from the severed neck and the concentration of serum calcium determined as a measure of bone calcium mobilization. The first 10 cm of the intestine was also collected for intestinal calcium transport analysis using the everted gut sac method.
Intestinal calcium transport was evaluated in the same groups of animals using the everted gut sac method (FIGS. 5A and 5B).

vitamin D-deficient rats [2] = experiment: Bone calcium mobilization (serum calcium); format: in vivo, rat; settings: for bone calcium mobilization (serum calcium levels): all dosages / overall, FIGS. 4A and 4B; for bone calcium mobilization (serum calcium): rats on low calcium diet (0.02%)
Protocol: as §1
Calcium mobilization from bone and intestinal calcium absorption in vitamin D-deficient animals.

HL-60 cells = experiment: HL-60 differentiation (nitro blue tetrazolium reduction); format: cell-based, human; settings: 4 days, NBT reduction, FIG. 2, read-out: EC50, HL-60 cell differentiation
Protocol: The study drugs were dissolved in ethanol and the concentrations determined using UV spectrophotometry. Serial dilutions were prepared so that a range of drug concentrations could be tested without changing the final concentration of ethanol (≦0.2%) present in the cell cultures.
Human promyelocytic leukemia (HL60) cells were grown in RPMI-1640 medium containing 10% fetal bovine serum. The cells were incubated at 37° C. in the presence of 5% CO2.
HL60 cells were plated at 1.2×10^5 cells/ml. Eighteen hours after plating, cells in duplicate were treated with drug. Four days later, the cells were harvested and a nitro blue tetrazolium reduction assay was performed (Collins et al., 1979; J. Exp. Med. 149:969-974). The percentage of differentiated cells was determined by counting a total of 200 cells and recording the number that contained intracellular black-blue formazan deposits. Verification of differentiation to monocytic cells was determined by measuring phagocytic activity (data not shown).

[3] = system: 24-hydroxylase (24Ohase) gene promoter; experiment: In vitro transcription assay, luciferase reporter in ROS 17/2.8 (bone) cells; format: cell-based; settings: ROS 17/2.8 cells, 24-hydroxylase promoter luciferase, 16 h; FIG. 3; read-out: EC50, transcriptional activity in bone cells
Protocol: Transcription activity was measured in ROS 17/2.8 (bone) cells that were stably transfected with a 24-hydroxylase (24Ohase) gene promoter upstream of a luciferase reporter gene (Arbour et al., 1998). Cells were given a range of doses. Sixteen hours after dosing the cells were harvested and luciferase activities were measured using a luminometer.
RLU=relative luciferase units.

[4] = 260 pmol/day ip for 4 consecutive days
[5] = 7020 pmol/day ip for 4 consecutive days

Row | EC50 [3] [nM] | EC50 (HL-60 cells; Homo sapiens, 96 h) [nM] | SMILES | intestinal calcium transport (vitamin D-deficient rats [1]; [4]) | bone calcium mobilization (serum calcium levels) (vitamin D-deficient rats [2]) | EC50 (HL-60 cells) [nM] | intestinal calcium transport (vitamin D-deficient rats [1]; [5]) | intestinal calcium transport activity compared to 1,25(OH)2D3 (vitamin D-deficient rats [1]; overall, FIGS. 5A and 5B, two batches of rats) | bone calcium mobilization (serum calcium) (vitamin D-deficient rats [2]; [4]) | bone calcium mobilization (serum calcium) (vitamin D-deficient rats [2]; [5]) | times less potent than the native hormone in mobilizing bone calcium store (vitamin D-deficient rats [2]; rats, compared to 1,25(OH)2D3, same increase in serum calcium)
1 | – | – | C=C1/C(=C\C=C2/CCC[C@]3(C)[C@@H]([C@H](C)CCCC(C)(C)O)CC[C@@H]23)C[C@@H](O)C[C@@H]1O [1,25(OH)2D3, 1α,25-dihydroxyvitamin D3, reference compound] | promotes a significant increase | increased serum calcium levels at all dosages | 2 | – | – | – | – | –
2 | 0.03 | 0.5 | C=C1[C@H](O)CC(=C/C=C2\CCC[C@@]3(C)C2CC[C@@H]3[C@@H](C)CCC[C@H](C)O)C[C@H]1O (stereo partly drawn) [A4, 2-methylene-(20S,25S)-19,26-dinor-1α,25-dihydroxyvitamin D3] | promotes intestinal calcium transport only slightly | very little bone calcium mobilization activity | – | significant intestinal calcium transport activity | very little activity | did not result in mobilization of bone calcium | without any substantial effect | approximately 100 times

Reference: US7947666B2, “2-methylene-(20S,25S)-19,26-dinor-vitamin D analogs” (Wisconsin Alumni Research Foundation, priority 2007, dated 2011)
